Data reported in patent US20040009485A1, “Cellular arrays for the identification of altered gene expression” (priority 2002, published 2004).

Tested on: SOS regulon gene fusions
Experiment: Stress response of SOS regulon luxCDABE gene fusions (nalidixic acid)
Assay type: cell-based, E. coli
Conditions: for Nalidixic acid response ratio: 5 μg/ml, 110 minutes, LB, treated/untreated
Procedure: To test the stress responses, one or two single colonies of each selected strain were used to inoculate 5.0 ml of LB medium containing 150 μg/ml of ampicillin. These cultures were grown overnight at 37° C. then diluted by adding 50 μl or 100 μl of the overnight culture into 10.0 ml of fresh LB medium (without ampicillin) and grown with agitation at 37° C. until the culture was in exponential phase with readings on a Klett-Summerson colorimeter containing the red filter of between 10 and 40. These actively growing cultures were immediately used to initiate a stress response experiment by adding 50 μl of cultures to 50 μl of LB medium containing various concentrations of chemical in the wells a 96 well luminometer plate. This division of the actively growing culture at the time of chemical addition ensured identical populations were present when the stress was imposed. Light production was measured in a Dynex ML3000 luminometer at 37° C. The dimensionless units of light production, relative light units (RLU), are obtained by comparison with the light reading from an internal light-emitting diode. The cycle mode of the ML3000 luminometer, similar to previous descriptions (Van Dyk et al., Appl. Environ. Microbiol. 60:1414-120) was used.
The ability of these promoter-luxCDABE fusions to report activation of the SOS stress response was tested using nalidixic acid, a known, potent chemical inducer. The final concentrations of nalidixic acid were 1, 5, 25, and 125 μg/ml for all but strain DPD2293, which was tested at 80, 40, 20, 10, 5, 2.5, and 1.25 μg/ml.
Specificity of responses was tested by measuring the effect of ethanol on these SOS regulon gene fusions.

Compound: CCn1cc(C(=O)O)c(=O)c2ccc(C)nc21 [Nalidixic acid, nalidixic acid]
- Nalidixic acid response ratio (dinF fusion, DPD2247 (lux-a.pk085.a5)): 2.2
- Nalidixic acid response ratio (dinG fusion, DPD2248 (lux-a.pk0024.f5)): 2.0
- Nalidixic acid response ratio (dinP fusion, DPD2249 (lux-a.pk055.a3)): 5.0
- bioluminescence compared with untreated culture (each of the eight SOS fusion strains, at least three concentrations (1-125 μg/ml; DPD2293 1.25-80 μg/ml)): increased bioluminescence
- Nalidixic acid response ratio (recA fusion, DPD2250 (lux-a.pk022.d4)): 1.8
- Nalidixic acid response ratio (recA fusion, DPD2251 (lux-a.pk085.b5)): 2.8
- Nalidixic acid response ratio (ruvA fusion, DPD2293 (lux-a.pk058.f2)): 4.6
- Nalidixic acid response ratio (uvrA fusion, DPD2253 (lux-a.pk01.b6)): 1.4
- Nalidixic acid response ratio (uvrD fusion, DPD2254 (lux-a.pk052.b6)): 1.2
